≈ marks a conversion by molar mass, not a printed value.

The test system of assay [1] is Fusarium verticillioides. Nature of the assay: Fungicidal activity against Fusarium verticilliodes isolate YZ08 in rice seeds harvested from bakane diseased plants assessed as number of seedlings abnormally elongated or exhibiting symptoms of damping-off at 8.33 ug/ml at 30 degC incubated for 72 hr measured after 3 days under greenhouse trials (reference value: 19.8%). Format: functional.

The subject of assay [2] is Fusarium verticillioides. Kind of assay: Fungicidal activity against Fusarium verticilliodes isolate N04 in rice seeds harvested from bakane diseased plants assessed as number of seedlings abnormally elongated or exhibiting symptoms of damping-off at 6.25 ug/ml at 30 degC incubated for 72 hr measured after 3 days under greenhouse trials (reference value: 14.5%). It is filed as functional.

For assay [3], the system named is Fusarium verticillioides. Nature of the assay: Fungicidal activity against Fusarium verticilliodes in rice seeds harvested from bakane diseased plants assessed as mycelial growth inhibition at 25 degC after 3 to 5 days. Format: functional, organism-based.
In assay [4] the test system is Fusarium verticillioides. Nature of the assay: Fungicidal activity against Fusarium verticilliodes isolate YZ13 in rice seeds harvested from bakane diseased plants assessed as number of seedlings abnormally elongated or exhibiting symptoms of damping-off at 12.5 ug/ml at 30 degC incubated for 72 hr measured after 3 days under greenhouse trials (reference value: 26.8%). Format: functional.

Assay [5] concerns Fusarium verticillioides. Nature of the assay: Fungicidal activity against Fusarium verticilliodes isolate JS03 in rice seeds harvested from bakane diseased plants assessed as number of seedlings abnormally elongated or exhibiting symptoms of damping-off at 6.25 ug/ml at 30 degC incubated for 72 hr measured after 3 days under greenhouse trials (reference value: 15.8%). Format: functional.

The subject of assay [6] is Fusarium verticillioides. Kind of assay: Fungicidal activity against Fusarium verticilliodes isolate YZ04 in rice seeds harvested from bakane diseased plants assessed as number of seedlings abnormally elongated or exhibiting symptoms of damping-off at 12.5 ug/ml at 30 degC incubated for 72 hr measured after 3 days under greenhouse trials (reference value: 44.2%). It is filed as functional.

Assay [7] concerns Fusarium verticillioides. Kind of assay: Fungicidal activity against Fusarium verticilliodes isolate JS05 in rice seeds harvested from bakane diseased plants assessed as number of seedlings abnormally elongated or exhibiting symptoms of damping-off at 6.25 ug/ml at 30 degC incubated for 72 hr measured after 3 days under greenhouse trials (reference value: 36.4%). Format: functional.

The test system of assay [8] is Fusarium verticillioides. Nature of the assay: Fungicidal activity against Fusarium verticilliodes isolate JS03 in rice seeds harvested from bakane diseased plants assessed as number of seedlings abnormally elongated or exhibiting symptoms of damping-off at 8.33 ug/ml at 30 degC incubated for 72 hr measured after 3 days under greenhouse trials (reference value: 15.8%). Format: functional.

The test system of assay [9] is Fusarium verticillioides. Kind of assay: Fungicidal activity against Fusarium verticilliodes isolate YZ10 in rice seeds harvested from bakane diseased plants assessed as number of seedlings abnormally elongated or exhibiting symptoms of damping-off at 6.25 ug/ml at 30 degC incubated for 72 hr measured after 3 days under greenhouse trials (reference value: 49.2%). It is filed as functional.

For assay [10], the system named is Fusarium verticillioides. Kind of assay: Fungicidal activity against Fusarium verticilliodes isolate YZ12 in rice seeds harvested from bakane diseased plants assessed as number of seedlings abnormally elongated or exhibiting symptoms of damping-off at 25 ug/ml at 30 degC incubated for 72 hr measured after 3 days under greenhouse trials (reference value: 45.8%). It is filed as functional.

The subject of assay [11] is Fusarium verticillioides. Nature of the assay: Fungicidal activity against Fusarium verticilliodes isolate JS05 in rice seeds harvested from bakane diseased plants assessed as number of seedlings abnormally elongated or exhibiting symptoms of damping-off at 8.33 ug/ml at 30 degC incubated for 72 hr measured after 3 days under greenhouse trials (reference value: 36.4%). It is filed as functional.

Assay [12] relates to Fusarium verticillioides. Nature of the assay: Fungicidal activity against Fusarium verticilliodes isolate YZ02 in rice seeds harvested from bakane diseased plants assessed as number of seedlings abnormally elongated or exhibiting symptoms of damping-off at 12.5 ug/ml at 30 degC incubated for 72 hr measured after 3 days under greenhouse trials (reference value: 29.8%). It is filed as functional.

For assay [13], the system named is Fusarium verticillioides. Nature of the assay: Fungicidal activity against Fusarium verticilliodes isolate N01 in rice seeds harvested from bakane diseased plants assessed as number of seedlings abnormally elongated or exhibiting symptoms of damping-off at 6.25 ug/ml at 30 degC incubated for 72 hr measured after 3 days under greenhouse trials (reference value: 27.4%). It is filed as functional.

Assay [14] deals with Fusarium verticillioides. Kind of assay: Fungicidal activity against Fusarium verticilliodes isolate YZ26 in rice seeds harvested from bakane diseased plants assessed as number of seedlings abnormally elongated or exhibiting symptoms of damping-off at 8.33 ug/ml at 30 degC incubated for 72 hr measured after 3 days under greenhouse trials (reference value: 49.3%). Format: functional.

The subject of assay [15] is Fusarium verticillioides. Kind of assay: Fungicidal activity against Fusarium verticilliodes isolate YZ05 in rice seeds harvested from bakane diseased plants assessed as number of seedlings abnormally elongated or exhibiting symptoms of damping-off at 12.5 ug/ml at 30 degC incubated for 72 hr measured after 3 days under greenhouse trials (reference value: 33.3%). It is filed as functional.

The test system of assay [16] is Fusarium verticillioides. Nature of the assay: Fungicidal activity against Fusarium verticilliodes isolate JS08 in rice seeds harvested from bakane diseased plants assessed as number of seedlings abnormally elongated or exhibiting symptoms of damping-off at 25 ug/ml at 30 degC incubated for 72 hr measured after 3 days under greenhouse trials (reference value: 13.0%). Format: functional.

The test system of assay [17] is Fusarium verticillioides. Kind of assay: Fungicidal activity against Fusarium verticilliodes isolate YZ05 in rice seeds harvested from bakane diseased plants assessed as number of seedlings abnormally elongated or exhibiting symptoms of damping-off at 8.33 ug/ml at 30 degC incubated for 72 hr measured after 3 days under greenhouse trials (reference value: 33.3%). It is filed as functional.

Assay [18] relates to Fusarium verticillioides. Kind of assay: Fungicidal activity against Fusarium verticilliodes isolate N02 in rice seeds harvested from bakane diseased plants assessed as number of seedlings abnormally elongated or exhibiting symptoms of damping-off at 12.5 ug/ml at 30 degC incubated for 72 hr measured after 3 days under greenhouse trials (reference value: 41.2%). Format: functional.

Assay [19] concerns Fusarium verticillioides. Nature of the assay: Fungicidal activity against Fusarium verticilliodes isolate JS01 in rice seeds harvested from bakane diseased plants assessed as number of seedlings abnormally elongated or exhibiting symptoms of damping-off at 12.5 ug/ml at 30 degC incubated for 72 hr measured after 3 days under greenhouse trials (reference value: 32.5%). It is filed as functional.

For assay [20], the system named is Fusarium verticillioides. Nature of the assay: Fungicidal activity against Fusarium verticilliodes isolate JS06 in rice seeds harvested from bakane diseased plants assessed as number of seedlings abnormally elongated or exhibiting symptoms of damping-off at 25 ug/ml at 30 degC incubated for 72 hr measured after 3 days under greenhouse trials (reference value: 25.2%). Format: functional.

The test system of assay [21] is Fusarium verticillioides. Kind of assay: Fungicidal activity against Fusarium verticilliodes isolate YZ09 in rice seeds harvested from bakane diseased plants assessed as number of seedlings abnormally elongated or exhibiting symptoms of damping-off at 12.5 ug/ml at 30 degC incubated for 72 hr measured after 3 days under greenhouse trials (reference value: 17.5%). Format: functional.

Assay [22] deals with Fusarium verticillioides. Nature of the assay: Fungicidal activity against Fusarium verticilliodes isolate JS07 in rice seeds harvested from bakane diseased plants assessed as number of seedlings abnormally elongated or exhibiting symptoms of damping-off at 25 ug/ml at 30 degC incubated for 72 hr measured after 3 days under greenhouse trials (reference value: 33.8%). It is filed as functional.

For assay [23], the system named is Fusarium verticillioides. Kind of assay: Fungicidal activity against Fusarium verticilliodes isolate YZ22 in rice seeds harvested from bakane diseased plants assessed as number of seedlings abnormally elongated or exhibiting symptoms of damping-off at 6.25 ug/ml at 30 degC incubated for 72 hr measured after 3 days under greenhouse trials (reference value: 22.5%). Format: functional.

Assay [24] has as its system Fusarium verticillioides. Nature of the assay: Fungicidal activity against Fusarium verticilliodes isolate N04 in rice seeds harvested from bakane diseased plants assessed as number of seedlings abnormally elongated or exhibiting symptoms of damping-off at 8.33 ug/ml at 30 degC incubated for 72 hr measured after 3 days under greenhouse trials (reference value: 14.5%). It is filed as functional.

Turning to `CCOC(=O)/C(C#N)=C(/N)c1ccccc1`, the Activity is 0% in assay [1]; 1.8% in assay [2]; 0% in assay [4]; 1.4% in assay [5]; 0% in [6]; 2.8% in assay [7]. Also, the Activity in assay [8] was found to be 0%; in assay [9], 3.8%; in [10], 0%; in [11], 0.2%; in [12], 0%; in assay [13], 0.8%. For the same molecule, the Activity in assay [14] is reported as 1.2%; in [15], 0%; in assay [16], 0%; in assay [17], 0%; in [18], 0%; in assay [19], 0%. The Activity in [20] is listed as 0%; in [21], 0%; in assay [22], 0%; in [23], 2.7%; in [24], 0%. Besides, in [3], the EC50 worked out at 0.379 µg/mL (≈ 1.75 µM).

These data come from ChEMBL document CHEMBL3044907, “Sensitivity of Fusarium verticillioides isolates from rice to a novel cyanoacrylate fungicide” (Crop Prot, 2012).
